These compounds were tested on Q7 cells (ST HDH Q7/7; immortalized mouse striatal cells) (assay: Q7 Cystine Deprivation cell survival (rescue) assay). Settings: 18 h, read-out: Q7 Cystine Deprivation Survival EC50.
Format: cell-based
Text: In neuronal cells excess extracellular glutamate inhibits the cystine/glutamate antiporter leading to intracellular cysteine depletion, GSH depletion, reactive oxygen species (ROS) production and cell death, a phenomenon termed oxidative glutamate toxicity, oxytosis, or ferroptosis. […] Q7 cells (ST HDH Q7/7; immortalized mouse striatal cells) challenged with cystine-free media or the selective, irreversible GPX4 inhibitor, methyl (1S,3R)-2-(2-chloroacetyl)-1-(4-(methoxycarbonyl)phenyl)-2,3,4,9-tetrahydro-1H-pyrido[3,4-b]indole-3-carboxylate (hereafter referred to as RSL3), recapitulate this phenotype, as do normal human fibroblasts (NHF) challenged with RSL3. An initial screen was performed to identify compounds effective in rescuing Q7 and/or NHF cells from death resulting from cystine deprivation or RSL3 challenge. This method is further described in Yonezawa et al., J. Neurochem 67, 566-573 (1996), Li et al., J Neurosci., 23, 5816-5826 (2003), Yang and Stockwell, Chem Biol., 15: 234-45 (2008), and Yang et al., Cell 156, 317-331 (2014). See also Hinman A, Holst C R, Latham J C, et al. Vitamin E hydroquinone is an endogenous regulator of ferroptosis via redox control of 15-lipoxygenase. PLoS One. 2018; 13(8):e0201369. Published 2018 Aug. 15. doi:10.1371/journal.pone.0201369; and Kahn-Kirby A H, Amagata A, Maeder C I, et al. Targeting ferroptosis: A novel therapeutic strategy for the treatment of mitochondrial disease-related epilepsy. PLoS One. 2019; 14(3):e0214250. Published 2019 Mar. 28. doi:10.1371/journal.pone.0214250.
DMEM (Catalog no. 11995-040), DMEM without Cystine (Catalog no. 21013-024), DMEM without Glucose (Catalog A1443001), PBS (Phosphate buffered saline), Penicillin-streptomycin mix, L-Glutamine, Glucose, Phenol Red, and Pyruvate were purchased from ThermoFisher Scientific (Gibco). Fetal Bovine Serum was obtained from Mediatech, Inc., or Sigma Aldrich. Mouse striatum derived ST HDH Q7/7 (Q7) and normal human skin fibroblast (NHF, product number GM21811) cells were obtained from the Coriell Institute. Methionine and Vitamin K2 were purchased from Sigma Aldrich. RSL3 was synthesized as previously described (see e.g. US Patent Publication US2010/0081654). Cell Titer Glo 2.0 was purchased from Promega. Q7 cell culture medium (Q7 growth medium) was made by combining 50 mL Fetal Bovine Serum, 100 U/mL penicillin, and 100 microgram/mL streptomycin; DMEM was added to make the volume up to 500 mL. Assay medium for the Cystine Deprivation assay was prepared by combining 50 mL Fetal Bovine Serum, 100 U/mL penicillin, 100 microgram/mL streptomycin, 4 mM L-Glutamine, 1 mM Pyruvate and 30 mg/L Methionine; DMEM without Cystine was added to make the volume up to 500 mL. NHF cell culture medium (NHF growth medium) was made by combining 50 mL Fetal Bovine Serum, 100 U/mL penicillin, 100 microgram/mL streptomycin, 2.8 mL 20% Glucose solution (final concentration 6 mM), L-glutamine (final concentration 2 mM), phenol red (final concentration 15 mg/L); DMEM without Glucose was added to make the volume up to 500 mL. Assay medium for the RSL3 challenge assay was identical to Growth medium. While not in use during the course of the experiments, these solutions were stored at 4° C. The cells were grown in 150-cm^2 tissue culture-treated flasks. Every third or fourth day, the cells were sub-cultured by trypsinization and re-seeded at a cell density of 600,000 (Q7) or 300,000 (NHF) cells per flask.
Q7 or NHF cells were cultured routinely as described herein. For 384-well cell survival assays, cells were seeded in clear bottom, black wall 384-well tissue culture-treated polystyrene plates by re-suspending a cell suspension at a density of 50,000 cells/mL in growth medium, then dispensing 60 microliters of cell suspension per well using either an electronic multichannel pipette or a Multidrop™ Combi Reagent Dispenser (ThermoFisher Scientific), corresponding to 3,000 cells/well. […]
With `COc1cc2c(cc1OC)C(=O)C(Cc1ccc(C(F)(F)F)cn1)=C(C)C2=O` [Example 41, 6,7-dimethoxy-2-methyl-3-((5-(trifluoromethyl)pyridin-2-yl)methyl)naphthalene-1,4-dione] the EC50 was < 0.05 µM.

Same assay, conditions: Q7 cells, cystine-free medium, 18 h, Cell Titer Glo, 50% relative viability vs Vitamin K2 (1 micromolar), read-out: Q7 Cystine Deprivation Survival EC50
With `O=C1C(O)=C(Cc2ccc(C(F)(F)F)cn2)C(=O)c2ccccc21` [Example 125, 2-hydroxy-3-((5-(trifluoromethyl)pyridin-2-yl)methyl)naphthalene-1,4-dione] the EC50 was > 1 µM.
`O=C1C=C(Cc2ccc(C(F)(F)F)cn2)C(=O)c2ccccc21` [Example 25, 2-((5-(trifluoromethyl)pyridin-2-yl)methyl)naphthalene-1,4-dione] was tested, and the EC50 was 0.25 to 1 µM.
For `CC1=C(Cc2ccc(C(F)(F)F)nn2)C(=O)c2ccccc2C1=O` [Example 10, 2-methyl-3-((6-(trifluoromethyl)pyridazin-3-yl)methyl)naphthalene-1,4-dione], the EC50 was < 0.05 µM.
`CC1=C(Cc2ccc(C)cn2)C(=O)c2ccccc2C1=O` [Example 7, 2-methyl-3-((5-methylpyridin-2-yl)methyl)naphthalene-1,4-dione] was tested, and the EC50 was < 0.05 µM.
With `CC1=C(Cc2cccc(C(F)(F)F)n2)C(=O)c2ccccc2C1=O` [Example 8, 2-methyl-3-((6-(trifluoromethyl)pyridin-2-yl)methyl)naphthalene-1,4-dione] the EC50 was < 0.05 µM.
With `CC1=C(Cc2cc(C)c(C)nn2)C(=O)c2ccccc2C1=O` [Example 13, 2-((5,6-dimethylpyridazin-3-yl)methyl)-3-methylnaphthalene-1,4-dione] the EC50 was < 0.05 µM.
For `CCCC1=C(Cc2ccc(C(F)(F)F)nn2)C(=O)c2ccccc2C1=O` [Example 107, 2-propyl-3-((6-(trifluoromethyl)pyridazin-3-yl)methyl)naphthalene-1,4-dione], the EC50 was < 0.05 µM.
In the case of `CC1=C(Cc2cc(C(F)(F)F)cnn2)C(=O)c2ccccc2C1=O` [Example 11, 2-methyl-3-((5-(trifluoromethyl)pyridazin-3-yl)methyl)naphthalene-1,4-dione], the EC50 is reported as < 0.05 µM.
In the case of `CC1=C(Cc2cc(C)c(F)cn2)C(=O)c2ccccc2C1=O` [Example 3, 2-((5-fluoro-4-methylpyridin-2-yl)methyl)-3-methylnaphthalene-1,4-dione], the EC50 is reported as < 0.05 µM.
`CC1=C(Cc2ccc(C)nn2)C(=O)c2ccccc2C1=O` [Example 5, 2-methyl-3-((6-methylpyridazin-3-yl)methyl)naphthalene-1,4-dione] was tested, and the EC50 was < 0.05 µM.
Work on `CCCC1=C(Cc2ncc(F)cc2C)C(=O)c2ccccc2C1=O` [Example 111, 2-((5-fluoro-3-methylpyridin-2-yl)methyl)-3-propylnaphthalene-1,4-dione] yielded an EC50 of 0.05 to 0.25 µM.
`CC1=C(Cc2cccnn2)C(=O)c2ccccc2C1=O` [Example 12, 2-methyl-3-(pyridazin-3-ylmethyl)naphthalene-1,4-dione] was tested, and the EC50 was < 0.05 µM.
With `CC1=C(Cc2cc(C(F)(F)F)c(F)cn2)C(=O)c2ccccc2C1=O` [Example 2, 2-((5-fluoro-4-(trifluoromethyl)pyridin-2-yl)methyl)-3-methylnaphthalene-1,4-dione] the EC50 was < 0.05 µM.
`CC1=C(Cc2cc(C)cnn2)C(=O)c2ccccc2C1=O` [Example 15, 2-methyl-3-((5-methylpyridazin-3-yl)methyl)naphthalene-1,4-dione] was tested, and the EC50 was < 0.05 µM.
`CCCC1=C(Cc2cc(C(F)(F)F)c(F)cn2)C(=O)c2ccccc2C1=O` [Example 119, 2-((5-fluoro-4-(trifluoromethyl)pyridin-2-yl)methyl)-3-propylnaphthalene-1,4-dione] was tested, and the EC50 was < 0.05 µM.
In the case of `CCOc1cnnc(CC2=C(C)C(=O)c3ccccc3C2=O)c1` [Example 16, 2-((5-ethoxypyridazin-3-yl)methyl)-3-methylnaphthalene-1,4-dione], the EC50 is reported as < 0.05 µM.
`CCCC1=C(Cc2ncc(C(F)(F)F)cc2F)C(=O)c2ccccc2C1=O` [Example 108, 2-((3-fluoro-5-(trifluoromethyl)pyridin-2-yl)methyl)-3-propylnaphthalene-1,4-dione] was tested, and the EC50 was 0.05 to 0.25 µM.
`O=C1C(CCC2COC2)=C(Cc2ccc(F)cn2)C(=O)c2ccccc21` [Example 121, 2-((5-fluoropyridin-2-yl)methyl)-3-(2-(oxetan-3-yl)ethyl)naphthalene-1,4-dione] was tested, and the EC50 was < 0.05 µM.
In the case of `CC1=C(Cc2ccc(C(F)(F)F)cn2)C(=O)c2cc(F)ccc2C1=O` [Example 45, 6-fluoro-2-methyl-3-((5-(trifluoromethyl)pyridin-2-yl)methyl)naphthalene-1,4-dione], the EC50 is reported as < 0.05 µM.
In the case of `COc1cccc2c1C(=O)C(C)=C(Cc1ccc(C(F)(F)F)cn1)C2=O` [Example 40, 5-methoxy-3-methyl-2-((5-(trifluoromethyl)pyridin-2-yl)methyl)naphthalene-1,4-dione], the EC50 is reported as < 0.05 µM.
In the case of `CC1=C(Cc2ncc(C(F)(F)F)cn2)C(=O)c2ccccc2C1=O` [Example 19, 2-methyl-3-((5-(trifluoromethyl)pyrimidin-2-yl)methyl)naphthalene-1,4-dione], the EC50 is reported as < 0.05 µM.
In the case of `CCCC1=C(Cc2ccc(C)cn2)C(=O)c2ccccc2C1=O` [Example 115, 2-((5-methylpyridin-2-yl)methyl)-3-propylnaphthalene-1,4-dione], the EC50 is reported as < 0.05 µM.
In the case of `CCCC1=C(Cc2ccc(F)c(C#N)n2)C(=O)c2ccccc2C1=O` [Example 112, 6-((1,4-dioxo-3-propyl-1,4-dihydronaphthalen-2-yl)methyl)-3-fluoropicolinonitrile], the EC50 is reported as < 0.05 µM.
`CC1=C(Cc2cc(C)c(C(F)(F)F)cn2)C(=O)c2ccccc2C1=O` [Example 4, 2-methyl-3-((4-methyl-5-(trifluoromethyl)pyridin-2-yl)methyl)naphthalene-1,4-dione] was tested, and the EC50 was < 0.05 µM.
In the case of `CC1=C(Cc2ccc(C(F)(F)F)cn2)C(=O)c2cccc(F)c2C1=O` [Example 46, 5-fluoro-3-methyl-2-((5-(trifluoromethyl)pyridin-2-yl)methyl)naphthalene-1,4-dione], the EC50 is reported as < 0.05 µM.
For `CCCC1=C(Cc2ncc(F)cc2F)C(=O)c2ccccc2C1=O` [Example 117, 2-((3,5-difluoropyridin-2-yl)methyl)-3-propylnaphthalene-1,4-dione], the EC50 was < 0.05 µM.
In the case of `CCCC1=C(Cc2ccc(Cl)cn2)C(=O)c2ccccc2C1=O` [Example 106, 2-((5-chloropyridin-2-yl)methyl)-3-propylnaphthalene-1,4-dione], the EC50 is reported as < 0.05 µM.
In the case of `COc1nnc(CC2=C(C)C(=O)c3ccccc3C2=O)cc1C(F)(F)F` [Example 17, 2-((6-methoxy-5-(trifluoromethyl)pyridazin-3-yl)methyl)-3-methylnaphthalene-1,4-dione], the EC50 is reported as < 0.05 µM.
With `COc1ccc2c(c1)C(=O)C(Cc1ccc(C(F)(F)F)cn1)=C(C)C2=O` [Example 36, 6-methoxy-2-methyl-3-((5-(trifluoromethyl)pyridin-2-yl)methyl)naphthalene-1,4-dione] the EC50 was < 0.05 µM.
For `COc1ccc2c(c1)C(=O)C(C)=C(Cc1ccc(C(F)(F)F)cn1)C2=O` [Example 37, 6-methoxy-3-methyl-2-((5-(trifluoromethyl)pyridin-2-yl)methyl)naphthalene-1,4-dione], the EC50 was < 0.05 µM.
`COC(C1=C(C)C(=O)c2ccccc2C1=O)c1ccc(C(F)(F)F)cn1` (centres unmarked) [Example 124, 2-(methoxy(5-(trifluoromethyl)pyridin-2-yl)methyl)-3-methylnaphthalene-1,4-dione] was tested, and the EC50 was < 0.05 µM.

Source: patent US20230002324A1, “NAPHTHOQUINONE DERIVATIVES FOR TREATMENT OF OXIDATIVE STRESS DISORDERS” (PTC THERAPEUTICS, INC., priority 2019, published 2023)
